Measured values as given in ChEMBL document CHEMBL5104090, “Recent advances in the medicinal chemistry of carbonic anhydrase inhibitors” (Eur J Med Chem, 2021).
Each block holds one compound with its values, some of them ahead of it.

Assays:
Carbonic anhydrase 1 [1] = molecular target: T1, Carbonic anhydrase 1 (Homo sapiens, UniProt P00915)
Target sequence in this assay (P00915 whole entry): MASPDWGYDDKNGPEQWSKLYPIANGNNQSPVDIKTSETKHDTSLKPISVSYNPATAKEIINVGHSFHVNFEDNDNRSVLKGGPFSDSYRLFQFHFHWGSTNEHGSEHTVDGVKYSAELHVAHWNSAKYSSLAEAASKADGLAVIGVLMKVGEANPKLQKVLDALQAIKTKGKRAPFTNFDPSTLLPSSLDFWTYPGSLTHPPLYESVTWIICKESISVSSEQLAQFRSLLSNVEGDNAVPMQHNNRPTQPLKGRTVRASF

Carbonic anhydrase 2 [2] = molecular target: T2, Carbonic anhydrase 2 (Homo sapiens, UniProt P00918)
Carbonic anhydrase 12 [3] = molecular target: T3, Carbonic anhydrase 12 (Homo sapiens, UniProt O43570); details: time 6.0 hrs
T3 sequence (O43570 whole entry): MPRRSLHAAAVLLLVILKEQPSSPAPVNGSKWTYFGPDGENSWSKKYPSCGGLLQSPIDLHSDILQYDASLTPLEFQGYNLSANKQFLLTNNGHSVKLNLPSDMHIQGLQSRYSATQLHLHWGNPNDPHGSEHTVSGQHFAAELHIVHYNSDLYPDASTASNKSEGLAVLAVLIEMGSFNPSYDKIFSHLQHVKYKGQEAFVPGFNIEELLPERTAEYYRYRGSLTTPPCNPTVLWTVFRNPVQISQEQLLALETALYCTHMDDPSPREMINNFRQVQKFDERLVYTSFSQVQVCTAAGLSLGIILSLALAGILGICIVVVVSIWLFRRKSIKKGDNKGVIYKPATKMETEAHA

Carbonic anhydrase 1 [4] = molecular target: T1, Carbonic anhydrase 1; remark: listed apart in the source
Target sequence in this assay (P00915 whole entry): as the sequence (P00915 whole entry) above

Carbonic anhydrase 2 [5] = molecular target: T2, Carbonic anhydrase 2; remark: listed apart in the source
Carbonic anhydrase 12 [6] = molecular target: T3, Carbonic anhydrase 12
in vitro [7] = details: human
Description: Selectivity index, ratio of CC50 for cytotoxicity against HGF cells to CC50 for cytotoxicity against human HSC-2 cells by MTT method

Carbonic anhydrase 9 [8] = molecular target: T4, Carbonic anhydrase 9 (Homo sapiens, UniProt Q16790)
in vitro [9] = details: human; remark: listed apart in the source
Description: Selectivity index, ratio of CC50 for cytotoxicity against HPLF cells to CC50 for cytotoxicity against human Ca9-22 cells by MTT method

in vitro [10] = details: human; remark: listed apart in the source
Description: Selectivity index, ratio of CC50 for cytotoxicity against HGF cells to CC50 for cytotoxicity against human Ca9-22 cells by MTT method

in vitro [11] = details: human; remark: listed apart in the source
Description: Selectivity index, ratio of CC50 for cytotoxicity against HPLF cells to CC50 for cytotoxicity against human HSC-2 cells by MTT method

Ca9-22 = assay: cells; format: functional; details: Homo sapiens, time 48 hrs
Description: Cytotoxicity against human Ca9-22 cells assessed as cell growth inhibition measured after 48 hrs by MTT assay

HSC-2 = assay: cells; format: functional; details: Homo sapiens, time 48 hrs
Description: Cytotoxicity against human HSC-2 cells assessed as cell growth inhibition measured after 48 hrs by MTT assay

Carbonic anhydrase 2 [12] = molecular target: T2, Carbonic anhydrase 2; remark: listed apart in the source
Acetylcholinesterase = Acetylcholinesterase (Homo sapiens, UniProt P22303)
Sequence of Acetylcholinesterase (P22303 whole entry): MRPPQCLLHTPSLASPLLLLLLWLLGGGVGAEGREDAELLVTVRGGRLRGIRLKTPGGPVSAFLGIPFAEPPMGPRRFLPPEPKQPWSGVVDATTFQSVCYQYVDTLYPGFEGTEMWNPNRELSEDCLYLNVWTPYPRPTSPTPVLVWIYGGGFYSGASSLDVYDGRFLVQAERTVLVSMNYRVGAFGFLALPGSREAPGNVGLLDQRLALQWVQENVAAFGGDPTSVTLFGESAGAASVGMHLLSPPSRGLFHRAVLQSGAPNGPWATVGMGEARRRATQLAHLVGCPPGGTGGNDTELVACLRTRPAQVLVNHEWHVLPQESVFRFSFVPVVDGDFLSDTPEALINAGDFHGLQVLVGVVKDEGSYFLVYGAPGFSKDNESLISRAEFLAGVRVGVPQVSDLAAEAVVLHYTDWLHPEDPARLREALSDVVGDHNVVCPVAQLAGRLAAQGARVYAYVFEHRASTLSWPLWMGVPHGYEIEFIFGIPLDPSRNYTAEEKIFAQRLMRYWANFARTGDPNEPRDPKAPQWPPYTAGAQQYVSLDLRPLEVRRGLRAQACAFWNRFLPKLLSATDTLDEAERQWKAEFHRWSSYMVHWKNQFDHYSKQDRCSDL

Carbonic anhydrase 1 [13] = molecular target: T1, Carbonic anhydrase 1; remark: listed apart in the source
Target sequence in this assay (P00915 whole entry): as the sequence (P00915 whole entry) above

in vitro [14] = details: human, corneal epithelial cell
Description: Cytotoxicity against human Corneal epithelial cell assessed as cell growth inhibition at 1 % measured after 96 hrs by MTT assay relative to control

Carbonic anhydrase 2 [15] = molecular target: T2, Carbonic anhydrase 2; remark: listed apart in the source
Carbonic anhydrase 1 [16] = molecular target: T1, Carbonic anhydrase 1; remark: listed apart in the source
Target sequence in this assay (P00915 whole entry): as above

MCF7 = assay: cells; format: functional, cell-based; details: Homo sapiens, MCF7, 48 h
Description: Cytotoxicity against human MCF7 cells assessed as cell growth inhibition measured after 48 hrs by MTT assay

SH-SY5Y = assay: cells; format: functional, cell-based; details: Homo sapiens, 48 h
Description: Cytotoxicity against human SH-SY5Y cells assessed as cell growth inhibition measured after 48 hrs by MTT assay

HT-1080 = assay: cells; format: functional, cell-based; details: Homo sapiens, HT-1080, 48 h
Description: Cytotoxicity against human HT-1080 cells assessed as cell growth inhibition measured after 48 hrs by MTT assay

[17] = molecular target: Carbonic anhydrase 5A, mitochondrial (Homo sapiens, UniProt P35218)
Sequence of Carbonic anhydrase 5A, mitochondrial (P35218 whole entry): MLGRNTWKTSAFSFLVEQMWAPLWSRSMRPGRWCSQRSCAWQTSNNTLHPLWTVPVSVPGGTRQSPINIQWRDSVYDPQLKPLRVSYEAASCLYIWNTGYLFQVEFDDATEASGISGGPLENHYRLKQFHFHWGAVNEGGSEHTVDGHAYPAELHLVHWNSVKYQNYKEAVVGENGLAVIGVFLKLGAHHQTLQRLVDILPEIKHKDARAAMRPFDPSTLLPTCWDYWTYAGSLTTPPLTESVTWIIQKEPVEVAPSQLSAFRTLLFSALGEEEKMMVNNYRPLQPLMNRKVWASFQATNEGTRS

Carbonic anhydrase 1 [18] = molecular target: T1, Carbonic anhydrase 1; remark: listed apart in the source
Target sequence in this assay (P00915 2-261 limits assumed): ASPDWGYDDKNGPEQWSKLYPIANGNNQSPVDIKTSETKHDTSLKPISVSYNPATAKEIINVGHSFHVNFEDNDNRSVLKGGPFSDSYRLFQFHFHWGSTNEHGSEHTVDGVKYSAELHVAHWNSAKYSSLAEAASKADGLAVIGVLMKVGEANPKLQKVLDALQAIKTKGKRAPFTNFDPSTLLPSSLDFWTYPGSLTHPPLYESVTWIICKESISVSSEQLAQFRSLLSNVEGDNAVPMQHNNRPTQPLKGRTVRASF

Carbonic anhydrase 9 [19] = molecular target: T4, Carbonic anhydrase 9; remark: listed apart in the source
Carbonic anhydrase 4 = Carbonic anhydrase 4 (Homo sapiens, UniProt P22748)
Sequence of Carbonic anhydrase 4 (P22748 whole entry): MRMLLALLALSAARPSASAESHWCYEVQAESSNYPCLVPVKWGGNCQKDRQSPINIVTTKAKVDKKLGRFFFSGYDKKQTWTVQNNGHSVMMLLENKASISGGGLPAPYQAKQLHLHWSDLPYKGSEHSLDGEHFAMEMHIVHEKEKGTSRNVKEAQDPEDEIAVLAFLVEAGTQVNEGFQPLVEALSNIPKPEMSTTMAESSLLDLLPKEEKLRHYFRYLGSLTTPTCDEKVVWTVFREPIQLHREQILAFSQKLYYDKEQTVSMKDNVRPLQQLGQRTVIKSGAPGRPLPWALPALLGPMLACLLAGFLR

SMILES: CN1CCN(CN2C(=O)C(=O)c3ccccc32)CC1
Ki (Carbonic anhydrase 1 [1]): 8.57 nM | Ki (Carbonic anhydrase 2 [2]): 5.02 nM

SMILES: COc1cc(C2CC(c3ccc(F)cc3)=NN2c2ccc(S(N)(=O)=O)cc2)cc(OC)c1OC (stereo not given)
Ki (Carbonic anhydrase 1 [4]): > 230 nM | Ki (Carbonic anhydrase 2 [5]): 0.089 nM | Ki (Carbonic anhydrase 12 [6]): > 9 nM | selectivity ratio (in vitro [7]): 1.1 | Ki (Carbonic anhydrase 9 [8]): > 44 nM | selectivity ratio (in vitro [9]): 1.1 | selectivity ratio (in vitro [10]): 1.1 | selectivity ratio (in vitro [11]): 1.1 | CC50 (Ca9-22): 6300 nM | CC50 (HSC-2): 7300 nM

SMILES: NS(=O)(=O)c1ccc(N2N=C(c3cccs3)CC2c2ccc(Br)cc2)cc1 (stereo not given)
Ki (Carbonic anhydrase 2 [12]): 37.3 nM | Ki (Acetylcholinesterase): 80.6 nM | Ki (Carbonic anhydrase 1 [13]): 25.6 nM

SMILES: COC(=O)[C@H]1O[C@@H](O)[C@H](O)[C@@H](O)[C@@]1(O)S(=O)(=O)Nc1ccccc1C(N)=O
inhibition at 96 h, 1 % (in vitro [14]): 74% | Ki (Carbonic anhydrase 2 [15]): 0.009 nM | IC50 (Carbonic anhydrase 1 [16]): 1800 nM

SMILES: C[C@@H]1O[C@H](NC(=O)c2ccc(S(N)(=O)=O)cc2)[C@H](O)[C@H](O)[C@H]1O
Ki (Carbonic anhydrase 2 [15]): 0.009 nM | IC50 (Carbonic anhydrase 1 [16]): 1800 nM

SMILES: Nc1ccc2c(c1)C=CCS(=O)(=O)O2
Kis (Carbonic anhydrase 12 [3]): 0.64 µM

SMILES: NS(=O)(=O)c1ccc(C(=O)N[C@@H]2O[C@H](CO)[C@@H](O)[C@H](O)[C@@H]2O)cc1
inhibition at 96 h, 1 % (in vitro [14]): 74% | Ki (Carbonic anhydrase 2 [15]): 0.009 nM

SMILES: O=S1(=O)C=Cc2cc(-c3nnnn3-c3ccccc3)ccc2O1
IC50 (MCF7): 1800 nM | Ki (Carbonic anhydrase 12 [6]): 5.4 nM | IC50 (SH-SY5Y): 18400 nM | Ki (Carbonic anhydrase 9 [8]): 6.9 nM | IC50 (HT-1080): 7900 nM

SMILES: NS(=O)(=O)c1ccc(C(=O)N[C@@H]2OC[C@@H](O)[C@H](O)[C@H]2O)cc1
inhibition at 96 h, 1 % (in vitro [14]): 74%

SMILES: CC(C)(C)c1ccc2c(c1)C(=O)N(NC(=O)c1ccc(S(N)(=O)=O)cc1)C2=O
Kis (Carbonic anhydrase 1 [18]): 84.3 nM | Kis (Carbonic anhydrase 9 [19]): 3 nM

SMILES: O=S1(=O)C=Cc2cc(-c3nnnn3-c3ccc(F)c(Cl)c3)ccc2O1
IC50 (MCF7): 1800 nM | IC50 (SH-SY5Y): 18400 nM | IC50 (HT-1080): 7900 nM

SMILES: NS(=O)(=O)c1ccc(N/N=C2\C(=O)Nc3ccccc32)cc1
Ki (Carbonic anhydrase 1 [4]): 90.2 nM | Ki (Carbonic anhydrase 2 [5]): 6.5 nM | Ki (Carbonic anhydrase 12 [6]): 34.3 nM | Ki (Carbonic anhydrase 9 [8]): 21.4 nM

SMILES: COc1cc(S(N)(=O)=O)ccc1-c1nc(-c2cccc(F)c2)no1
Ki (Carbonic anhydrase 4): 8.9 nM

SMILES: O=S1(=O)C=Cc2cc(-n3cc(-c4ccc(Cl)cc4)nn3)ccc2O1
IC50 (MCF7): 1800 nM | Ki (Carbonic anhydrase 12 [6]): 5.4 nM | IC50 (SH-SY5Y): 18400 nM | Ki (Carbonic anhydrase 9 [8]): 6.9 nM | IC50 (HT-1080): 7900 nM

Continued, values first:

Kis (Carbonic anhydrase 12 [3]): 0.64 µM
SMILES: O=S1(=O)CC=Cc2cc(-n3cc(-c4ccc(C(F)(F)F)cc4)nn3)ccc2O1

Ki (Carbonic anhydrase 2 [5]): 3 nM | Ki (Carbonic anhydrase 12 [6]): 34.3 nM | Ki (Carbonic anhydrase 9 [8]): 13.9 nM
SMILES: NS(=O)(=O)c1ccc(N=C2C(=O)Nc3ccccc32)cc1

Ki [17]: 58.7 nM
SMILES: CC(C)[C@@H](NC(=O)OCc1ccccc1)C(=O)NCCc1ccc(S(N)(=O)=O)cc1

Ki (Carbonic anhydrase 1 [1]): 8.57 nM | Ki (Carbonic anhydrase 2 [2]): 5.02 nM
SMILES: O=C1C(=O)N(CN2CCOCC2)c2ccccc21

Ki (Carbonic anhydrase 2 [5]): 3 nM | Ki (Carbonic anhydrase 12 [6]): 34.3 nM | Ki (Carbonic anhydrase 9 [8]): 16.4 nM
SMILES: NS(=O)(=O)c1ccc(NCC(=O)N/N=C2\C(=O)N(Cc3ccccc3)c3ccccc32)cc1

Kis (Carbonic anhydrase 12 [3]): 0.64 µM
SMILES: O=[N+]([O-])c1ccc2c(c1)C=CCS(=O)(=O)O2
